Assay results published in US20130079402A1, “Use of at Least One Dialkyl Thiosulfonate or Thiosulfinate for Reducing the Number of Apicomplexa in an Animal” (Pancosma S.A., priority 2010, published 2013).
Where two headings read alike, the source gives them in different places.

Tested on: sporozoites of Eimeria tenella
Assay: Viability of Eimeria tenella sporozoites after 24 hours incubation with test compound (trypan blue exclusion)
Type: cell-based
Settings: for percentage inhibition (effectiveness): concentration of 10 ppm; for inhibition at 100 ppm: Eimeria tenella, read-out: percentage inhibition (inhibitory or destructive effect on the sporozoites)
Procedure: The antiparasitic properties of the following compounds were tested: • a capsicum oleoresin (Capsicum frutescens pigment) containing 6% by weight of a mixture of capsaicin and dihydrocapsaicin; • carvacrol; • cinnamaldehyde; • curcumin; • anethole; • PTS (according to the invention); • PTSO (according to the invention); and • an extract (according to the invention) called “Garlicon 40” containing […] of organosulfur compounds characteristic of garlic/onion, 6.7% by weight of PTS and 34.3% by weight of PTSO.
A first series of samples consisting of an aqueous solution containing 100 ppm of the abovementioned test compounds, and a second series of samples containing only 10 ppm of these compounds, were prepared.
Next, in order to be able to test the effect of the abovementioned compounds on Eimeria, the following was carried out. Freshly sporulated oocysts were obtained from Eimeria tenella and were stored at 4° C. in a 2.5% (weight/volume) potassium dichromate solution until use.
The oocysts were then sterilized with bleach before isolating sporozoites. The walls of the oocysts were mechanically destroyed for 5 to 7 seconds using a ball mill having balls of 0.5 mm.
The product obtained was then incubated for 45 minutes at 41° C. in a PBS buffer solution containing 0.014 mol/l of taurodeoxycholic acid and 0.25% by weight of trypsin in order to release the sporozoites.
The fluids released by the excystation were filtered and the sporozoites collected were washed three times with RPMI-1640 medium with stirring at 2100 revolutions per minute for 10 minutes at 4° C.
Solutions of 10^6 sporozoites per milliliter were then prepared, and were left to incubate with the same volume of sample of test compound for 24 hours.
The viability of the sporozoites was then measured according to the trypan blue exclusion method.
The results can be seen on the appended single figure, in which the numbers located above each column indicate the percentage inhibition by the corresponding compound and the numbers which follow the name of the compound indicate its concentration.
A measurement was also carried out with a control solution (free of test compound) called “Control” on the figure.

[1] = concentration of 100 ppm, 24 hours incubation

| SMILES | percentage inhibition (effectiveness) (24 hours incubation) [%] | inhibition at 100 ppm [1] [%] | also measured |
| --- | --- | --- | --- |
| CCCS[S+]([O-])CCC (stereo not drawn) [PTS, di(n-propyl) thiosulfinate] | 87 |  |  |
| CCCSS(=O)(=O)CCC [PTSO, di(n-propyl) thiosulfonate] | 61 |  | effectiveness at 10 ppm compared with 100 ppm (10 ppm versus 100 ppm): higher effectiveness at 10 ppm than at 100 ppm |
| Cc1ccc(C(C)C)cc1O [carvacrol] |  |  | inhibition at 100 ppm (24 h): ≥ 74% |
| O=CC=Cc1ccccc1 [cinnamaldehyde] |  | ≥ 74 |  |
| COc1cc(/C=C/C(=O)CC(=O)/C=C/c2ccc(O)c(OC)c2)ccc1O [curcumin] |  | ≥ 74 |  |
